Assay results taken from paper PMC4916434, “Evaluation of the inhibition potential of plumbagin against cytochrome P450 using LC-MS/MS and cocktail approach” (Scientific Reports, 2016).

How the values were obtained:
CYP2C9 = target: T1, CYP2C9 (Homo sapiens, UniProt P11712); test: CYP2C9 inhibition (tolbutamide methyl-hydroxylation) in pooled human liver microsomes, cocktail LC-MS/MS; assay type: in vitro ADME
T1 construct: consisting of pooled HLMs (0.5 mg/ml) or RLMs (1 mg/ml) and an NADPH-regenerating system; tissue Corning Gentest Corporation; host or cells: pooled human liver microsomes (n = 20)
Procedure: (§1) Microsomal incubation was carried out at 37 °C in a mixture of 200 μl in 0.05 M Tris/HCl buffer (pH 7.4) consisting of pooled HLMs (0.5 mg/ml) or RLMs (1 mg/ml) and an NADPH-regenerating system including MgCl2 (5 mM), G6P (10 mM), G6PDH (0.4 U/ml) and NADP (1 mM). Substrates were added into the incubation mixture and obtained the final concentrations (10 μM phenacetin for CYP1A2, 20 μM bupropion for CYP2B1/6, 20 μM tolbutamide for CYP2C9/11, 5 μM dextromethorphan for CYP2D1/6, 20 μM chlorzoxazone for CYP2E1 and 10 μM midazolam for CYP3A2/4), which were close to Km respectively. The proportion of organic solvent was not higher than 1% (v/v) in the incubation mixture. After pre-incubation for 5 min, the reaction was initiated by addition of NADP. Incubations were performed for 20 min, stopped by adding 200 μl ice-cold acetonitrile. And then 20 μl internal standard solution was added (3-acetamidophenol 2 μg/ml, chlorpropamide 2 μg/ml and mebendazole 2 μg/ml). The solution was mixed thoroughly for 3 min and centrifuged for 10 min at 16,000 × g at 4 °C. The supernatant (60 μl) was transferred to autosampler vials, and 2 μl was injected into LC-MS/MS system.
(§2) The IC50 (concentration of inhibitor to cause 50% inhibition of original enzyme activity) values were determined with the same incubation condition above. The specific concentrations of plumbagin were ranged from 0.1 μM to 50 μM. The IC50 values were calculated by plotting relative activities over the logarithm of plumbagin concentrations using GraphPad Prism 5.0 (GraphPad software Inc., CA, USA).
(§3) Cocktail probe substrates were then added and incubated for 20 min. Reactions were stopped with 200 μl ice-cold acetonitrile. The samples were treated according to the microsomal incubation method and then injected into LC-MS/MS for analysis.
(§4) Kinetic studies were performed for determining the types of inhibition on CYP by plumbagin. Pooled HLMs (0.5 mg/ml) or RLMs (1 mg/ml) with plumbagin (1 μM, 2 μM, 5 μM and 10 μM) were incubated in 0.05 M Tris/HCl buffer (pH 7.4) for 20 min at 37 °C. A series of concentrations for cocktail probe substrates were used: 2.5–20 μM phenacetin for CYP1A2; 5–40 μM bupropion for CYP2B1/6; 5–40 μM tolbutamide for CYP2C9/11; 1.25–10 μM dextromethorphan for CYP2D1/6; 5–40 μM chlorzoxazone for CYP2E1; 2.5–80 μM midazolam for CYP3A2; and 0.625–5 μM midazolam for CYP3A4. Enzyme kinetics as well as statistical analysis were performed using GraphPad Prism 5.0.
(§5) All data were presented as mean ± SD. The IC50 values were fitted by non-linear regression analysis using GraphPad Prism 5.0. The kinetic parameters were obtained by fitting velocity data to kinetic models (Michaelis-Menten) using GraphPad Prism 5.0. The Lineweaver-Burk Plot (the reciprocal of reaction velocities versus the reciprocal of substrates concentrations) was used to determine the quality of fit to a specific inhibition model. The inhibition constant (Ki) was obtained by a secondary plot using the slopes of the primary Lineweaver-Burk Plot (Km/Vmax versus inhibitor concentrations). αKi was obtained from a secondary plot using the y-intercepts of the Lineweaver-Burk plot (1/Vmax versus inhibitor concentrations). All results were analyzed in quadruplicate. One-way analysis of variance was used to estimate the significance of differences. There was statistical significance between control and test groups if p < 0.05.

CYP2E1 = target: T2, CYP2E1 (Homo sapiens, UniProt P05181); test: CYP2E1 inhibition (chlorzoxazone 6-hydroxylation) in pooled human liver microsomes, cocktail LC-MS/MS; assay type: in vitro ADME
T2 construct: consisting of pooled HLMs (0.5 mg/ml) or RLMs (1 mg/ml) and an NADPH-regenerating system; tissue Corning Gentest Corporation; host or cells: pooled human liver microsomes (n = 20)
Procedure: as §1, §2, §3, §4, §5

T1 sequence (P11712 whole entry): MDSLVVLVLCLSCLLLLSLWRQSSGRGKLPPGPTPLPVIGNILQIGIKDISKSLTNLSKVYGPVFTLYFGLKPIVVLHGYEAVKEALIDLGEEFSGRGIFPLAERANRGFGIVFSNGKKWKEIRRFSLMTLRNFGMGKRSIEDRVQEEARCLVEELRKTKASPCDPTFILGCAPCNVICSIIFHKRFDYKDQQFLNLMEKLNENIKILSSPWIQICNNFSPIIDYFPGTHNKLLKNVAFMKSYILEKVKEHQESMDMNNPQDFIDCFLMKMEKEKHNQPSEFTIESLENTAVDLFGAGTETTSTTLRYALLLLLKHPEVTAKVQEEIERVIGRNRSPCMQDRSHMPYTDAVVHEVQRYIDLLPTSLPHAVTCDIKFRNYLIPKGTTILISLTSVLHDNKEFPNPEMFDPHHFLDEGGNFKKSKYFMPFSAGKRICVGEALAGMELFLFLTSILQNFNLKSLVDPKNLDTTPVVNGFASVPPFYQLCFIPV
T2 sequence (P05181 whole entry): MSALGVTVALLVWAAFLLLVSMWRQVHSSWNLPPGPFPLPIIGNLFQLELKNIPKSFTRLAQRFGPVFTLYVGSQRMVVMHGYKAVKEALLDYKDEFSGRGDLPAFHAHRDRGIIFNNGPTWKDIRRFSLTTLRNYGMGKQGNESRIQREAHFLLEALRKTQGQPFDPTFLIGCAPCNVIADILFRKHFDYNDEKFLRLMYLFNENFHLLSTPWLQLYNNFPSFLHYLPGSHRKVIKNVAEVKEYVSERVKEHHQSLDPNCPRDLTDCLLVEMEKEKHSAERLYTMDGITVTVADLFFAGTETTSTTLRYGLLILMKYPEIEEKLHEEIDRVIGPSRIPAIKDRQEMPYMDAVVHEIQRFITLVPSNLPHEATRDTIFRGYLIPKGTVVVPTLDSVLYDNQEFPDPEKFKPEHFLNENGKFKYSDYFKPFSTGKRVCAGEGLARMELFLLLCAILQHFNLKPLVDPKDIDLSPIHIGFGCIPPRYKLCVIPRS

`CC1=CC(=O)c2c(O)cccc2C1=O` [plumbagin, 5-hydroxy-2-methyl-1,4-naphthoquinone] was tested. Which IC50 (CYP2C9) did it give?
Its IC50 is 10.9 µM.

And the Ki (CYP2C9)?
Its Ki is 2.16 µM.

And the Type of inhibition (CYP2C9)?
The Type of inhibition was “mixed-type”.

What about the αKi (CYP2C9; HLMs, secondary plot of y-intercepts, tolbutamide 5-40 μM) of the same molecule?
The αKi was 1.46 µM.

What about the α (CYP2C9; human, 20 min, pH 7.4) of the same molecule?
The α was 1.48.

What about the IC50 (CYP2E1) of the same molecule?
Its IC50 is 6.54 µM.

And the Ki (CYP2E1)?
The Ki was 0.65 µM.

And the Type of inhibition (CYP2E1)?
Its Type of inhibition is “mixed-type”.

What about the αKi (CYP2E1; HLMs, secondary plot of y-intercepts, chlorzoxazone 5-40 μM) of the same molecule?
The αKi was 2.64 µM.

What about the α (CYP2E1; human, 20 min, pH 7.4) of the same molecule?
The α was 0.25.
